The target of data set [1] is T1, horse serum butyrylcholinesterase (BChE) (Equus caballus, UniProt P81908).
T1 construct: human recombinant AChE (hAChE), and horse serum BChE; purchased Sigma-Aldrich; host or cells: horse serum
The data set can be described thus: Inhibition of horse serum butyrylcholinesterase (modified Ellman method). It is filed as biochemical. Conditions: for IC50: Ellman method, pH 7.4, 25 °C, 3 as acetate salt; for type of inhibition against BChE: kinetic analysis, Dixon plot (Figure S4). As for the experimental part: (§1) The inhibition of cholinesterase activity was determined using a modification of the Ellman method, which was adapted for microtiter plates. Stock solutions of 3, 7, and 8 (2 mg/mL) were prepared in pure EtOH. […] Stock solutions of the potential inhibitors and the positive controls were added to the microtiter plate wells and progressively diluted in 100 mM potassium phosphate buffer (pH 7.4) to a final volume of 50 μL. Then, 100 μL acetylthiocholine chloride (1 mM) and 5,5′-dithiobis-2-nitrobenzoic acid (0.5 mM) in 100 mM potassium phosphate buffer (pH 7.4) was added into the microtiter plate wells. The cholinesterases that were used (eeAChE, hAChE, and BChE; all from Sigma-Aldrich, St. Louis, MO, USA) were dissolved in 100 mM potassium phosphate buffer (pH 7.4) to a final concentration of 0.0075 U/mL. Each cholinesterase solution (50 μL) was added into the microtiter plate wells to start the reaction, which was followed spectrophotometrically at 405 nm at 25 °C over 5 min using a kinetic microplate reader (Dynex Technologies Inc., Chantilly, VA, USA). Blank reactions without inhibitors were run with the appropriate dilutions of EtOH, and the readings were corrected according to the corresponding blanks. Each measurement was repeated at least three times. […] The data were analyzed using the OriginPro software (OriginPro 2021 (9.8), OriginLab Corporation, Northampton, MA, USA).
(DTNB colorimetry detects thiols as they appear.)

For data set [2], the target named is T2, human recombinant acetylcholinesterase (hAChE) (Homo sapiens, UniProt P22303).
T2 construct: purchased Sigma-Aldrich
T2 sequence (P22303 32-614): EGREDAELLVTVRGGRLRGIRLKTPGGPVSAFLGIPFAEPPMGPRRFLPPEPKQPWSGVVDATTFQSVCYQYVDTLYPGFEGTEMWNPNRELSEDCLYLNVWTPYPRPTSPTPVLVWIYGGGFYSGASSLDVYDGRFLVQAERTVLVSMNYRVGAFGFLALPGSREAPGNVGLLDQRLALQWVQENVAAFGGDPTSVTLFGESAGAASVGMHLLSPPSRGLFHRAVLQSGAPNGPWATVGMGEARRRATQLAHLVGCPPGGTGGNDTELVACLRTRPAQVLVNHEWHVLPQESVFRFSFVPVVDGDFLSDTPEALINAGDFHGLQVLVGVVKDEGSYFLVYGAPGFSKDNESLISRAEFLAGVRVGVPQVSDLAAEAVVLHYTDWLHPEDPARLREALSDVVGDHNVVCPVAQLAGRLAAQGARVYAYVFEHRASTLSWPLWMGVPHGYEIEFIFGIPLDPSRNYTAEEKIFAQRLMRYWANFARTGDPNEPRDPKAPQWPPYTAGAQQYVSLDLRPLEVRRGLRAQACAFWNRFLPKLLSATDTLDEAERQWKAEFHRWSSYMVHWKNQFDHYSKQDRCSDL
Briefly: Inhibition of human recombinant acetylcholinesterase (modified Ellman method). The class given is biochemical. The following applies: for Ki: Dixon plot, substrate 0.125, 0.25, 0.5 mM; for Ki / IC50: 3 as acetate salt; for IC50: Ellman method, pH 7.4, 25 °C; for type of inhibition against hAChE: kinetic analysis, Dixon plot (Figure S4). As for the experimental part:
as §1

In data set [3] the target is T3, electric eel acetylcholinesterase (eeAChE) (Electrophorus electricus, UniProt O42275).
T3 construct: purchased Sigma-Aldrich
T3 sequence (O42275 24-633): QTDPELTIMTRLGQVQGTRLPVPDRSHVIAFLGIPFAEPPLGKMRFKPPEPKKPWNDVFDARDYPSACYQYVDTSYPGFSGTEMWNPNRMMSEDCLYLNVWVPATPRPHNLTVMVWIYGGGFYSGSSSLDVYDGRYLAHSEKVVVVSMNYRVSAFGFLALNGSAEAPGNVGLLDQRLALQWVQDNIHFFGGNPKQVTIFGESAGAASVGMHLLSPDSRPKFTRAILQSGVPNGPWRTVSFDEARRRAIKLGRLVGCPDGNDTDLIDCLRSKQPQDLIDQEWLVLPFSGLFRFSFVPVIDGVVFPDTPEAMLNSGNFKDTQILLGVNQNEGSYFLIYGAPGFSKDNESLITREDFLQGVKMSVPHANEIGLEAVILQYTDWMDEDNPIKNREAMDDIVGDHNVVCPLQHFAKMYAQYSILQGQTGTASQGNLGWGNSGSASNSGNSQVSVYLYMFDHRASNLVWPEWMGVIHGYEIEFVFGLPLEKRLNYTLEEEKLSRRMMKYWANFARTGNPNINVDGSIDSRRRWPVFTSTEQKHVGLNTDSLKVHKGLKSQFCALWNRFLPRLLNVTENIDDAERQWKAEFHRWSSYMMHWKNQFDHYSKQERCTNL
Briefly: Inhibition of electric eel acetylcholinesterase (modified Ellman method). It is filed as biochemical. The following applies: for Ki: Dixon plot, substrate 0.125, 0.25, 0.5 mM; for Ki / IC50: 3 as acetate salt; for IC50: Ellman method, pH 7.4, 25 °C; for type of inhibition against eeAChE: kinetic analysis, Dixon plot (Figure S4). As for the experimental part:
as §1

Data set [4] has as its system neuromuscular transmission or skeletal muscle function. The following applies: electrophysiological study; cited from earlier work.
Data set [5] concerns the target T1, horse serum butyrylcholinesterase (BChE). Conditions: cited from earlier work.
The target in data set [6] is T2, human recombinant acetylcholinesterase (hAChE). Conditions: cited from earlier work.
Data set [7] deals with T3, electric eel acetylcholinesterase (eeAChE). The following applies: cited from earlier work.
[8] abbreviates: discorhabdin G as trifluoroacetate (TFA) salt, ref Botić et al. [5].

Like-named read-outs stand apart in the source and are kept apart here. Some results are limits rather than exact numbers.

T1 sequence (P81908 whole entry): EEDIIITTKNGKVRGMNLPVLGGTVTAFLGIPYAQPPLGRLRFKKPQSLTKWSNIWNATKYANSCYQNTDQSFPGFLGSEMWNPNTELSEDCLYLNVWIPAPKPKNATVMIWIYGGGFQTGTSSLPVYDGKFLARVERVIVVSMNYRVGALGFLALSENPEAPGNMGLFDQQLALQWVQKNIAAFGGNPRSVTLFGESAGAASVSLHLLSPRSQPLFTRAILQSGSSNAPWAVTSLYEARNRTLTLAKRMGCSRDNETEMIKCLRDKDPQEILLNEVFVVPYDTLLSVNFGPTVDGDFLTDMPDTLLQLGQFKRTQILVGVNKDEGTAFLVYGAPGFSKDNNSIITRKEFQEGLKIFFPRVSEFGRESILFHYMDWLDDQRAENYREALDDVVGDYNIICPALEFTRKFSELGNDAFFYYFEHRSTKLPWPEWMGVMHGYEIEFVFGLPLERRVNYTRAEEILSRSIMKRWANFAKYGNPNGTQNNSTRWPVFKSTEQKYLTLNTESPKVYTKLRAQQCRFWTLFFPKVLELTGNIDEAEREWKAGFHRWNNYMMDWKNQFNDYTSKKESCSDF

The IC50 is the midpoint of a concentration-inhibition curve. The Ki is the equilibrium dissociation constant of an inhibitor or competing ligand from its target. In the case of `Cc1nc2c3n1CCN=C3c1ccccc1C2=O` [Compound 3, 5-methyl-2H-benzo[h]imidazo[1,5,4-de]quinoxalin-7(3H)-one], in data set [1], the half-maximal inhibitory concentration (IC50) was greater than 400 µM and the “type of inhibition against BChE” value is “reversible competitive”. For the same molecule, in data set [2], the Ki was 5.8 µM, the IC50 turned out to be 16.9 µM and the “type of inhibition against hAChE” value was “reversible competitive”. Moreover, in data set [3], the Ki was 7.3 µM, the IC50 was found to be 13.5 µM and the “type of inhibition against eeAChE” value is recorded as “reversible competitive”.

Regarding `Cc1nc2c(o1)C(=O)c1ccccc1C2=O` [Compound 7, 2-methylnaphtho[2,3-d]oxazole-4,9-dione], in data set [1] (Dixon plot, substrate 0.125, 0.25, 0.5 mM), the affinity corresponds to a Ki of 50 µM. Also, in data set [1], the IC50 came out at 145 µM and the “type of inhibition against BChE” value is “reversible competitive”. Further, in data set [2], the Ki worked out at 50 µM, the IC50 stood at 234 µM and the “type of inhibition against hAChE” value was “reversible competitive”. Moreover, in data set [3], the inhibitory constant (Ki) was determined as 65 µM, the IC50 was 188 µM and the “type of inhibition against eeAChE” value was “reversible competitive”.

On to `CC(=O)NC1=C2NCCN=C2c2ccccc2C1=O` [Compound 8, N-(6-oxo-2,3,4,6-tetrahydrobenzo[f]quinoxalin-5-yl)acetamide], for which the IC50 in data set [1], in data set [2] and in data set [3] was greater than 400 µM throughout.

With `CN(C)C(=O)Oc1cccc([N+](C)(C)C)c1` [Neostigmine methylsulfate, reference compound], the IC50 in data set [1] came to 83.7 µM; in data set [3], 6 µM.

As to discorhabdin G [Compound 1], the “adverse effects on neuromuscular transmission or skeletal muscle function” value in data set [4] was “no adverse effects”. Further, the IC50 is 7 µM in data set [5] (setting [8]), 116 µM in data set [6] (setting [8]) and 1.3 µM in data set [7] (setting [8]). For the same molecule, the Ki in data set [5] (setting [8]) is 5 µM; in data set [6] (setting [8]), 56.2 µM; in data set [7] (setting [8]), 1.6 µM. In data set [5] (previously observed), the “type of inhibition against BChE” value is on record as “reversible competitive”. Also, in data set [6] (previously observed), the “type of inhibition against hAChE” value is reported as “reversible competitive”. Besides, the “type of inhibition against eeAChE” value in data set [7] (previously observed) is on record as “reversible competitive”.
